Results from ChEMBL document CHEMBL1201862, “PubChem BioAssay data set” (2004).
Counter-ions that a name gives are not always drawn. Active and inactive are the calls of the source.

How the values were obtained:
Vero = assay: cells; type: functional; settings: Chlorocebus sabaeus
[1] = Shn3 3'UTR reporter inhibitors, dose response, cell-based, Clone20 osteoblasts, firefly luciferase, cherry-picked (AID 624132); type: functional;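 further: firefly luciferase luminescence from reporter carrying the Shn3 3'UTR in osteoblasts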
[2] = inhibitors of control Renilla luciferase reporter, dose response, counter-screen for Shn3 3'UTR targeting project, Clone20-Shn3RL cells, dual-Glo, cherry-pick, set 2 (AID 720724); type: functional, cell-based; settings: Dual-Go Shn3RL
[3] = control 3'UTR Renilla luciferase suppression, dose response, counter-screen for Shn3 inhibitor project, cell-based, Clone20-Shn3RL, cherry-picked (AID 624133); type: functional
[4] = reduction of Shn3 3'UTR firefly luciferase signal, dose response, Schnurri-3 inhibitor project, cell-based, Clone20 osteoblasts, cherry-pick, set 2 (AID 720490); type: functional;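 further: actives lower the luminescence signal as inhibitors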
Protein skinhead-1 = target: T1, Protein skinhead-1 (Caenorhabditis elegans, UniProt P34707); type: functional
T1 sequence (P34707 whole entry): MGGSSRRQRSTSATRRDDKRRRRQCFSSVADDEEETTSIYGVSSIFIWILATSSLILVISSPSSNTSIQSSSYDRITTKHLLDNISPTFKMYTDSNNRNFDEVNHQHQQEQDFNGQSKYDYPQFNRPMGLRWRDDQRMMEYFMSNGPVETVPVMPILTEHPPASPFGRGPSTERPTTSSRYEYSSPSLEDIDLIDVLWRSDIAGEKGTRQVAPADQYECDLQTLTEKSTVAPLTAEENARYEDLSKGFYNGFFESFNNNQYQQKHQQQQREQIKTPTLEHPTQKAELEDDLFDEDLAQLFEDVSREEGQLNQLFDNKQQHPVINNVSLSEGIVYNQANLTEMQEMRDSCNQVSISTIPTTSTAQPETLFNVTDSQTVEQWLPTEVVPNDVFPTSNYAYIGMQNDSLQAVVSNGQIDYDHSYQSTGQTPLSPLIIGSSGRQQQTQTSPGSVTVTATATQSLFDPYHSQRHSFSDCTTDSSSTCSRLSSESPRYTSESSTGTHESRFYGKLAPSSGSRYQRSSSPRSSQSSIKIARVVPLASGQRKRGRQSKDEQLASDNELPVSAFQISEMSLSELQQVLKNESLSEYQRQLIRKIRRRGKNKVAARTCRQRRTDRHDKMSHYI

[5] = L. donovani amastigote growth inhibition, dose response, axenic amastigotes, plate reader, cherry pick (AID 651891); type: functional, cell-based; settings: Leishmania donovani
[6] = T. cruzi growth inhibition in host cells, dose response, cell-based, plate reader, dry powder, set 2 (AID 652275); type: functional
[7] = cytotoxicity in L-6 rat myocytes, dose response, cytotoxicity control, cell-based, plate reader, cherry-pick (AID 651896); type: functional
[8] = Inhibition of T. cruzi Tulahuen strain amastigotes in L-6 muscle cells Measured in Cell-Based and Microorganism Combination System Using Plate Reader - 2138-03_Inhibitor_Dose_CherryPick_Activity.; type: functional; settings: Rattus norvegicus, L6
[9] = growth inhibition of intracellular T. cruzi, dose response, cell-based, plate reader, dry powder samples (AID 651845); type: functional
[10] = intracellular Trypanosoma cruzi inhibitors in host cells – cell-based, plate reader, cherry-pick samples, set 3, dose response (AID 651818); type: functional;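 further: compounds incubated with infected cells for about four days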
[11] = Inhibition of Plasmodium falciparum NF54 Measured in Cell-Based System Using Plate Reader - 2138-11_Inhibitor_Dose_CherryPick_Activity.; type: functional
[12] = T. b. rhodesiense proliferation inhibition, dose response, STIB900 strain, plate reader, cherry pick (AID 651893); type: functional, cell-based; settings: Trypanosoma brucei
[13] = NIH/3T3 fibroblast cytotoxicity, dose response, cytotoxicity control for T. cruzi growth inhibitor project, cell-based, cherry-pick samples, set 2 (AID 651817); type: functional; settings: NIH3T3
[14] = T. cruzi intracellular amastigote growth inhibition, dose response, imaging, CA-I/72 strain, bovine embryo skeletal muscle, dry powder (AID 651885); type: functional, cell-based
[15] = target: NAD-dependent protein deacylase sirtuin-5, mitochondrial (Homo sapiens, UniProt Q9NXA8); assay: SIRT5 deacylase inhibitors, dose response, biochemical, fluorescence imaging, cherry-pick, set 6 (AID 720597)
Fibrinogen beta chain [16] = target: T2, Fibrinogen beta chain (Homo sapiens, UniProt P02675); assay: Fluorescence polarization-based biochemical high throughput dose response assay to identify inhibitors that disrupt the binding of a cyclic peptide (Tn7) to the fibrin proteolytic product D-Dimer and fragment E complex [DD(E )].
Fibrinogen beta chain [17] = target: T2, Fibrinogen beta chain; assay: Fluorescence polarization-based biochemical high throughput dose response assay to identify inhibitors that disrupt the binding of a cyclic peptide (Tn6) to the fibrin proteolytic product D-Dimer and fragment E complex [DD(E )].
[18] = Late stage assay provider results from the probe development effort to identify inhibitors of the Plasmodium falciparum M18 Aspartyl Aminopeptidase (M18AAP): radiolabel-based cell-based dose response assay to identify compounds that inhibit P. falciparum growth in RBCs, Set 2..; type: functional
[19] = A Cell-Based Confirmatory Screen for Compounds that Inhibit VEEV, TC-83 (5).; type: functional
[20] = growth inhibition of replicating M. tuberculosis, dose response, counter-screen, dry powder, IC90 (AID 651617); type: functional; settings: Mycobacterium tuberculosis
[21] = inhibitors of non-replicating M. tuberculosis, dose response, luciferase, dry powder (AID 651619); type: functional; settings: Mycobacterium tuberculosis
[22] = inhibitors of non-replicating M. tuberculosis, dose response, luciferase, dry powder (AID 651620); type: functional; settings: Mycobacterium tuberculosis
[23] = target: RNA-editing ligase 1, mitochondrial (Trypanosoma brucei brucei, UniProt P86926); assay: TbREL1 ligase inhibitors, dose response, biochemical, fluorescence, Trypanosoma brucei (AID 1117295); type: functional
[24] = target: T3, Low molecular weight phosphotyrosine protein phosphatase (Homo sapiens, UniProt P24666); assay: LMPTP phosphatase inhibitors, colorimetric pNPP readout, dose response, orthogonal assay, biochemical, absorbance, pNPP substrate, LMPTP-A isoform, set 2 (AID 743308); type: functional
T3 sequence (P24666 whole entry): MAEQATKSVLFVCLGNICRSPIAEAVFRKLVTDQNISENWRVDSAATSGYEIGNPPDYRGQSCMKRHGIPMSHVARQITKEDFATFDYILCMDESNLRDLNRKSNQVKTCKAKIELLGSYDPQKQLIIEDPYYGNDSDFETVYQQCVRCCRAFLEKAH

[25] = target: T3, Low molecular weight phosphotyrosine protein phosphatase; assay: LMPTP phosphatase inhibitors, dose response, biochemical, OMFP substrate, fluorescence intensity, set 2 (AID 743307); type: functional
[26] = HeLa 4N DNA content increase, dose response, cell-based, IC50 (AID 1117351); type: functional
[27] = HeLa 2N DNA content increase, dose response, cell-based, IC50 (AID 1117349); type: functional
cells = type: functional, cell-based; settings: INS-1E
[28] = Dose-response inhibition of insulin secretion in a rat insulinoma line at 5 mM glucose (AID 1117331); type: functional, cell-based; settings: INS-1E

T2 sequence (P02675 whole entry, the tested form may be a part): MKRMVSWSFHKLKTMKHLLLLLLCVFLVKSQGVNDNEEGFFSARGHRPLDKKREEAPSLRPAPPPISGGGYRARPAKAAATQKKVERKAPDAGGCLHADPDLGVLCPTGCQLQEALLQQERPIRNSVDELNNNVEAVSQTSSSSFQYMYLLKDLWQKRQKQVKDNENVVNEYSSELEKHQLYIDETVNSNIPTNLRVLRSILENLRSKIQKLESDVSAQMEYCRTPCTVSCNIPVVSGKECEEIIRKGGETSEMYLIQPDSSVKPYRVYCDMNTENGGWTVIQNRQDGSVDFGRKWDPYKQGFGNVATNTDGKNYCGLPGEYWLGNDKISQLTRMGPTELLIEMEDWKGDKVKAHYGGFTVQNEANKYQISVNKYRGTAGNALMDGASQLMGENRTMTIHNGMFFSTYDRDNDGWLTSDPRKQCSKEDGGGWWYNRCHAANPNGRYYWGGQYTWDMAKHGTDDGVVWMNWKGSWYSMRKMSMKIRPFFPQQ
Sequence of RNA-editing ligase 1, mitochondrial (P86926 whole entry, canonical isoform): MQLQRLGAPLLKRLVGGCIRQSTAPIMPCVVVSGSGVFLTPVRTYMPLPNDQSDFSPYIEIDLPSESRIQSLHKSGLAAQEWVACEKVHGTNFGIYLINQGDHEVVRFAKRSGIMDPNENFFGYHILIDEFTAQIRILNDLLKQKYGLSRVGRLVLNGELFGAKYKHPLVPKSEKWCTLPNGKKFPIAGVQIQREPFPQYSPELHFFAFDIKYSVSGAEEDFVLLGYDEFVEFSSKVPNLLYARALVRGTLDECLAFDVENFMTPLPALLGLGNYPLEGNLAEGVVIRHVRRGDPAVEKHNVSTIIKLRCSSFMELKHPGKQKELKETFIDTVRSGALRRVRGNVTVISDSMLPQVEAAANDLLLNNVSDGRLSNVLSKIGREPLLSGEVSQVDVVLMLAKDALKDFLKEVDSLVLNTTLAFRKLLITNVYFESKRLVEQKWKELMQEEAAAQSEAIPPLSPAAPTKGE
Sequence of NAD-dependent protein deacylase sirtuin-5, mitochondrial (Q9NXA8 whole entry, the tested form may be a part): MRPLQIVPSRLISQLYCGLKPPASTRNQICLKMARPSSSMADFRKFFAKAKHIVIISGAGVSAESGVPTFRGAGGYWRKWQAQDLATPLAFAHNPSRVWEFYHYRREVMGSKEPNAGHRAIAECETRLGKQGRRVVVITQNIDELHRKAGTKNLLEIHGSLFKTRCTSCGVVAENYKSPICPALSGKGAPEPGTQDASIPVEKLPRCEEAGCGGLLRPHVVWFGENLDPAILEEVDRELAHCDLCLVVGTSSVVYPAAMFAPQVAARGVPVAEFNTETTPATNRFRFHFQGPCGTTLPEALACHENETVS

Structure (SMILES): O=C(CSc1c2c(nc3ccc(Cl)cc13)CCCC2)NCc1ccco1
- CC50 (Vero): > 25 µM (active)
- AC50 [1]: 5.71 µM (active)
- AC50 [2]: 44.7 µM (active)
- AC50 [3]: 31.2 µM (active)
- AC50 [4]: 8.55 µM (active)
- IC50 (Protein skinhead-1): > 100 µM (inactive)

Structure (SMILES): C[C@@H]1CN([C@H](C)CO)C(=O)c2cccc(NC(=O)c3ccncc3)c2O[C@H]1CN(C)Cc1ccc2c(c1)OCO2
- IC50 [5]: > 100 µM (inactive)
- AC50 [6]: 0.0187 µM (active)
- IC50 [7]: > 100 µM (inactive)
- IC50 [8]: 5.79 µM (inactive)
- AC50 [9]: 0.311 µM (active)
- AC50 [10]: 0.08 µM (active)
- IC50 [11]: 5.79 µM (inactive)
- IC50 [12]: 6.86 µM (inactive)
- AC50 [13]: 39 µM (inactive)
- IC50 [14]: 0.049 µM (active)

Structure (SMILES): COc1ccc(S(=O)(=O)Nc2ccc3c(c2)C(=O)N([C@@H](C)CO)C[C@@H](C)[C@H](CN(C)S(=O)(=O)c2ccccc2)OCCCC[C@H](C)O3)cc1
- AC50 [15]: > 30 µM (inactive)

Structure (SMILES): CCOC(=O)C1=Nc2cccc3c(O)ccc1c23
- IC50 (Fibrinogen beta chain [16]): > 9.25 µM (active)
- IC50 (Fibrinogen beta chain [17]): 22.3 µM (inactive)

Structure (SMILES): COc1cc(Br)c(CCNc2c3ccccc3nc3ccccc23)cc1OC
- IC50 [18]: 0.3 µM (active)

Structure (SMILES): CCN1CCN(Cc2nc3ccc(I)cc3c(=O)n2-c2ccccc2)CC1
- IC50 [19]: 17.1 µM (active)

Structure (SMILES): Cc1ccc(-c2nnc(SCc3ccccn3)o2)cc1
- IC90 [20]: 62 µM (active)
- IC90 [21]: 4 µM (active)
- IC90 [22]: 4 µM (active)

Structure (SMILES): COC(=O)C1=C(C)N(Cc2ccccc2C(F)(F)F)C(NCc2ccc(OC)cc2)=NC1c1ccc(Cl)cc1 (stereo unspecified)
- IC50 [23]: > 96.6 µM (inactive)

Structure (SMILES): c1ccc(-c2nc(NC3CC3)c3ccccc3n2)cc1
- IC50 [24]: > 80 µM (inactive)
- IC50 [25]: 48.1 µM (inactive)

Structure (SMILES): CCN(CCCCOC(=O)c1ccc(OC)c(OC)c1)C(C)Cc1ccc(OC)cc1 (stereo unspecified) [MEBEVERINE HYDROCHLORIDE]
- IC50 [26]: > 10 µM (inactive)
- IC50 [27]: > 10 µM (inactive)
- IC50 (cells): > 33.3 µM (inactive)
- IC50 [28]: 1.95 µM (active)
